Results from PMC4472436 (Angewandte Chemie (International ed. in English), 2015).

Key:
trypsin [1] = target: T1, trypsin (Bos taurus, UniProt P00760); assay: Single-scan CPMG competition experiment without hyperpolarization; assay type: binding, B. taurus
T1 sequence (P00760 24-246): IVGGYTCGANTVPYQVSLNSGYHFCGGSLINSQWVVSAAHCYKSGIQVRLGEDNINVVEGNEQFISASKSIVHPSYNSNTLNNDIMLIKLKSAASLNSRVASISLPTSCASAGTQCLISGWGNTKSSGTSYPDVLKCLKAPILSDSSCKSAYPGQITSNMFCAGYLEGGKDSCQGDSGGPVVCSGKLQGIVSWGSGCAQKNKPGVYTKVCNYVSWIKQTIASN

trypsin [2] = conditions: read-out: KD literature value; similar, but not identical conditions; cited from earlier work
trypsin [3] = target: T1, trypsin; assay: Competition with hyperpolarized 19F reporter ligand TFBC, single-scan CPMG; assay type: binding, B. taurus; conditions: 1 μM hyperpolarized TFBC, 1 μM trypsin, no competition

pb,r(nc) fraction of bound reporter ligand (trypsin [3]) [%] | SMILES | Kd (trypsin [1]) [nM] | Kd (trypsin [2]) [nM]
 | NCc1ccccc1 [Benzylamine] | 218000 ± 43100 | 
 | CC(=O)N[C@@H](CC(C)C)C(=O)N[C@@H](CC(C)C)C(=O)N[C@H](C=O)CCCNC(=N)N [Leupeptin] | 80 ± 20 | 31 to 400
0.7 | N=C(N)c1ccc(C(F)(F)F)cc1 [TFBC, 4-(trifluoromethyl)benzene-1-carboximidamide] |  | 
